Test results reported in patent EP0054589B1, “Organic phosphoric acid ester derivatives, a process for preparing the same and insecticidal, miticidal or nematocidal compositions containing the same” (priority 1980, dated 1982).

Legend:
egg plant = assay: Phytotoxicity on various crops; format: in vivo; parameters: key: Symbol — indicates that no toxicity was observed; conditions: 500 ppm sprayed; checked visually after 10 days
Method: (§1) An emulsifiable concentrate prepared as described in Formulation Example 2 was diluted with water to a concentration of 500 ppm based on the effective ingredient and sprayed sufficiently using a spray-gun onto various test plants. The plants were kept in a green house. After 10 days from the application phytotoxicity was checked visually. The test was replicated 3 times for each compound.

Kidney Bean = assay: Phytotoxicity on various crops; format: in vivo; parameters: key: Symbol — indicates that no toxicity was observed; conditions: 500 ppm sprayed; checked visually after 10 days
Method: as §1

Cotton = assay: Phytotoxicity on various crops; format: in vivo; parameters: key: Symbol — indicates that no toxicity was observed; conditions: 500 ppm sprayed; checked visually after 10 days
Method: as §1

Green Pepper = assay: Phytotoxicity on various crops; format: in vivo; parameters: key: Symbol — indicates that no toxicity was observed; conditions: 500 ppm sprayed; checked visually after 10 days
Method: as §1

Tea = assay: Phytotoxicity on various crops; format: in vivo; parameters: key: Symbol — indicates that no toxicity was observed; conditions: 500 ppm sprayed; checked visually after 10 days
Method: as §1

Rice = assay: Phytotoxicity on various crops; format: in vivo; parameters: key: Symbol — indicates that no toxicity was observed; conditions: 500 ppm sprayed; checked visually after 10 days
Method: as §1

Cucumber = assay: Phytotoxicity on various crops; format: in vivo; parameters: key: Symbol — indicates that no toxicity was observed; conditions: 500 ppm sprayed; checked visually after 10 days
Method: as §1

Apple = assay: Phytotoxicity on various crops; format: in vivo; parameters: key: Symbol — indicates that no toxicity was observed; conditions: 500 ppm sprayed; checked visually after 10 days
Method: as §1

Tomato = assay: Phytotoxicity on various crops; format: in vivo; parameters: key: Symbol — indicates that no toxicity was observed; conditions: 500 ppm sprayed; checked visually after 10 days
Method: as §1

Cabbage = assay: Phytotoxicity on various crops; format: in vivo; parameters: key: Symbol — indicates that no toxicity was observed; conditions: 500 ppm sprayed; checked visually after 10 days
Method: as §1

Beet = assay: Phytotoxicity on various crops; format: in vivo; parameters: key: Symbol — indicates that no toxicity was observed; conditions: 500 ppm sprayed; checked visually after 10 days
Method: as §1

rice stem borer = assay: Insecticidal effect on rice stem borer, 3rd-instar larvae (rice seedling dip); format: in vivo, Chilo suppressalis; conditions: after 72 hours, 25°C
Method: (§2) (A) A wettable powder prepared as described in Formulation Example 5 was diluted with water to a predetermined concentration. Rice seedlings were dipped into the dilute solution and placed in a 60 ml volume cup made of vinyl chloride resin, and 10 3rd-instar larvae of rice stem borer were put in each cup. The cups were capped and maintained at 25°C.
as §2, with “(B) A” for “(A) A”, “Example 7” for “Example 5”

tobacco cutworm [1] = assay: Insecticidal effect on tobacco cutworm (cabbage leaf dip); format: in vivo, Prodenia litura; conditions: after 48 hours, 25°C
Method: (§3) (A) An emulsifiable concentrate prepared as described in Formulation Example 1 was diluted with water to a predetermined concentration and then cabbage leaves were dipped into the dilute solution and dried in air and placed in a 60 ml volume cup made of vinyl chloride resin. 3rd-instar larvae of tobacco cutworm were put in each cup and maintained at 25°C. After 48 hours, percent mortality was assessed. The test was replicated 3 times for each compound using 30 insects in each test.
as §3, with “(B)” for “(A)”, “3” for “1”

tobacco cutworm [2] = assay: Long-lasting insecticidal effect on tobacco cutworm (sprayed cabbage plantlet); format: in vivo, Prodenia litura; conditions: Table 5, concentration 500 (unit not given), mortality after 48 hours
Method: (§4) (A) An emulsifiable concentrate prepared as described in Formulation Example 2 was diluted with water to a predetermined concentration and sprayed onto a cabbage plantlet in a flower pot of 15 cm in diameter using a spray-gun sufficiently and the tests plants were placed in a green house. The leaves of the plants were cut off on the 3rd, 5th, 7th, 10th and 15th day and placed in a 60 ml volume cup and 3rd-instar larvae of tobacco cutworm were put in each cup. The cups were kept in an incubator (25°C). After 48 hours, percent mortality was assessed. The tests was replicated 3 times for each compound using 30 insects in each test.
as §4, with “(B) An” for “(A) An”, “Example 3” for “Example 2”, “and 1 5th” for “and 15th”

[3] = Table 1, 500 ppm, wettable powder as Formulation Example 5
[4] = Table 3, 500 ppm, emulsifiable concentrate as Formulation Example 1
[5] = Table 2, 100 ppm, wettable powder as Formulation Example 7
[6] = Table 4, 100 ppm, emulsifiable concentrate as Formulation Example 3
[7] = Table 1, 100 ppm, wettable powder as Formulation Example 5

Compound	Phytotoxicity: Egg Plant (egg plant)	Phytotoxicity: Kidney Bean (Kidney Bean)	Phytotoxicity: Cotton (Cotton)	Phytotoxicity: Green Pepper (Green Pepper)	Phytotoxicity: Tea (Tea)	Phytotoxicity: Rice (Rice)	Phytotoxicity: Cucumber (Cucumber)	Phytotoxicity: Apple (Apple)	Phytotoxicity: Tomato (Tomato)	Phytotoxicity: Cabbage (Cabbage)	Phytotoxicity: Beet (Beet)	Percent Mortality (%) (rice stem borer; [3])	Percent Mortality (%) (tobacco cutworm [1]; [4])	also measured
CCOP(=S)(Oc1ccc2c(c1)OC(C)=CC2(C)C)SCC (centres unmarked) [compound 12]	—	—	—	—	—	—	—	—	—	—	—	100	100	
CCOP(=S)(Oc1cccc2c1C(C)=CC(C)(C)O2)SC(C)CC (centres unmarked) [Compound No. 27]	—	—	—	—	—	—	—	—	—	—	—			Percent Mortality (%) (rice stem borer; [5]): 100%; Percent Mortality (%) (tobacco cutworm [1]; [6]): 100%
CCCSP(=O)(OCC)Oc1ccc2c(c1)OC(CC)=C(C)C2(CC)CC (centres unmarked) [Compound No. 21, O-ethyl-S-propyl-O-(2,4,4-triethyl-3-methyl-1,2-benzopyran-7-yl)phosphorothioate]	—	—	—	—	—	—	—	—	—	—	—	100		Percent Mortality (%) (rice stem borer; [7]): 100%; Percent Mortality (%) (rice stem borer; [5]): 100%; Percent Mortality (%) (tobacco cutworm [1]; [6]): 100%
CNC(=O)ON=C(C)SC [Lannate, S-methyl N-(methylcarbamoyloxy)thioacetimidate, reference compound]														Percent Mortality After Application 3rd Day (tobacco cutworm [2]; leaves cut on 3rd day): 80%; Percent Mortality After Application 5th Day (tobacco cutworm [2]; leaves cut on 5th day): 30%; Percent Mortality After Application 7th Day (tobacco cutworm [2]; leaves cut on 7th day): 7%; Percent Mortality After Application 10th Day (tobacco cutworm [2]; leaves cut on 10th day): 0%; Percent Mortality After Application 15th Day (tobacco cutworm [2]; leaves cut on 15th day): 0%
CCCSP(=O)(Oc1ccc2c(c1)OC(C)=CC2(C)C)OC(C)CC (centres unmarked) [compound 15]	—	—	—	—	—	—	—	—	—	—	—	100	100	
COP(=O)(NC(C)=O)SC (centres unmarked) [Orthene, O,S-dimethyl acetylphosphoramidothioate, reference compound]													90.0	
CCCOP(=O)(Oc1ccc2c(c1)OC(C)=CC2(C)C)SCCC (centres unmarked) [Compound No. 3]	—	—	—	—	—	—	—	—	—	—	—	100	100	
CCOP(=O)(Oc1ccc2c(c1)OC(C)=CC2(C)C)SCC (centres unmarked) [Compound No. 8]	—	—	—	—	—	—	—	—	—	—	—	100	100	
COP(=S)(OC)Oc1ccc([N+](=O)[O-])c(C)c1 [Sumithion, dimethyl(3-methyl-4-nitrophenyl)thiophosphate, reference compound]														Percent Mortality (%) (rice stem borer; Table 2, concentration not given): 100%
COP(=O)(OC)C(O)C(Cl)(Cl)Cl (centres unmarked) [Dipterex, dimethyl 2,2,2-trichloro-1-hydroxyethyl phosphonate, reference compound]												100		Percent Mortality (%) (rice stem borer; [7]): 100%
CCCCOP(=O)(Oc1ccc2c(c1)OC(C)=CC2(C)C)SCCC (centres unmarked) [compound 4]	—	—	—	—	—	—	—	—	—	—	—	100	100	
O-isopropyl-S-isopropyl-O-(2,4,4-trimethyl-1,4-benzopyran-7-yl)phosphorothioate [Compound No. 7]	—	—	—	—	—	—	—	—	—	—	—	100	100	
CCCOP(=O)(Oc1ccc2c(c1)OC(C)=CC2(C)C)SC (centres unmarked) [Compound No. 13]	—	—	—	—	—	—	—	—	—	—	—	100	100	
